Laboratory results taken from patent publication US20260297060A1, “COMPOUNDS FOR THE DEGRADATION OF MUTANT BRAF” (C4 THERAPEUTICS, INC., priority 2023, published 2026).
Like-named read-outs stand apart in the source and are kept apart here.

What was measured:
[1] = biological target: T1, BRAF V600E (Homo sapiens, UniProt P15056+Q96SW2, V600E); test: BRAF V600E HiBiT Degradation Assay; format: cell-based
T1 construct: knock-in of the HiBiT tag to the endogenous BRAF V600E locus; host or cells: A375.10 (A375 clonal line, CRISPR HiBiT knock-in at the endogenous BRAF V600E locus)
How it was run: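 Endogenous HiBiT knock-in on BRAF V600E in A375 cells (clone A375.10); 11-point half-log series, top 10 μM, 2, 6 or 24 h at 37° C. Lytic HiBiT luminescence, background-subtracted, normalized to DMSO; 4-parameter fit gives DC50, Emax (residual protein) and IP (inflection point).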

[2] = test system: A375-NRAS^Q61K cells; test: CTGlo Cell Viability Assay, A375-NRAS^Q61K (A375.11) cells, 96 hours; format: cell-based, human; conditions: Homo sapiens, 96 h, A375.11 (A375-NRAS^Q61K) cells; for Emax: lowest % viability achieved
How it was run: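 A375 cells carrying BRAF V600E and NRAS Q61K were seeded at 250 cells/well with a 10-point half-log dose series (max 10 μM final). After 96 h at 37 °C, viability was read as ATP luminescence (CellTiter-Glo), background-subtracted and normalized to DMSO (100%). GI50 from 4-parameter fit; Emax is the lowest % viability.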

[3] = A375.10 cells, BRAF V600E, 2 hours, residual protein remaining, read-out: HiBiT-Degradation A375.10 BRAF 2 hours Emax
[4] = read-out: HiBiT-Degradation A375.10 BRAF 2 hours DC50, A375.10 cells, BRAF V600E, 2 hours
[5] = read-out: HiBiT-Degradation A375.10 BRAF 2 hours IP, A375.10 cells, BRAF V600E, 2 hours, inflection point
[6] = A375.10 cells, BRAF V600E, 2 hours, inflection point, read-out: HiBiT-Degradation A375.10 BRAF 2 hours IP
[7] = A375.10 cells, BRAF V600E, 2 hours, read-out: HiBiT-Degradation A375.10 BRAF 2 hours DC50
[8] = read-out: HiBiT-Degradation A375.10 BRAF 2 hours Emax, A375.10 cells, BRAF V600E, 2 hours, residual protein remaining
[9] = A375.10 cells, HiBiT, BRAF V600E, 24 hours, read-out: HiBiT-Degradation A375.10 BRAF 24 hours DC50
[10] = A375.10 cells, HiBiT, BRAF V600E, 24 hours, read-out: HiBiT-Degradation A375.10 BRAF 24 hours Emax
[11] = A375.10 cells, HiBiT, BRAF V600E, 24 hours, read-out: HiBiT-Degradation A375.10 BRAF 24 hours IP

T1 sequence (P15056 whole entry V600E): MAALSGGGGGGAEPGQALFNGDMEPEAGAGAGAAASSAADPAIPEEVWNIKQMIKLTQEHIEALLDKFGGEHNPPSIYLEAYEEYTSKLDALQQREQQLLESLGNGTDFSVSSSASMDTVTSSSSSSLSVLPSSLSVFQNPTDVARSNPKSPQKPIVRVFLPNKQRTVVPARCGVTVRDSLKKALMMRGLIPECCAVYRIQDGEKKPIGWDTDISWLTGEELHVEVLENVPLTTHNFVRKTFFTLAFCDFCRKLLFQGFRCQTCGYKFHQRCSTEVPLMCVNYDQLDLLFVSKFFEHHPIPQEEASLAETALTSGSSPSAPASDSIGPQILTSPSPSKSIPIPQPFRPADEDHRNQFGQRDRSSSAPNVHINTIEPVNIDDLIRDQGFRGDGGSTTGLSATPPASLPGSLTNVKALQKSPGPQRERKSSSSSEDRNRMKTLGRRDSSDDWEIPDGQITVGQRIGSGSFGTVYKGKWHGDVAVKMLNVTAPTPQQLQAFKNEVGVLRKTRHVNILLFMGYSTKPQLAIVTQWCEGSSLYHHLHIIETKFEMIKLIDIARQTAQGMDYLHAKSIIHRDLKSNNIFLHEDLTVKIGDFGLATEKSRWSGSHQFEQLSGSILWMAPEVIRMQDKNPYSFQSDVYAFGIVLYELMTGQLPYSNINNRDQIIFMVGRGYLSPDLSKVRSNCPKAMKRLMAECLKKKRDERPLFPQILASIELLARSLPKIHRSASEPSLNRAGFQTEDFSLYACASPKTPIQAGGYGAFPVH
T1 sequence (Q96SW2 whole entry): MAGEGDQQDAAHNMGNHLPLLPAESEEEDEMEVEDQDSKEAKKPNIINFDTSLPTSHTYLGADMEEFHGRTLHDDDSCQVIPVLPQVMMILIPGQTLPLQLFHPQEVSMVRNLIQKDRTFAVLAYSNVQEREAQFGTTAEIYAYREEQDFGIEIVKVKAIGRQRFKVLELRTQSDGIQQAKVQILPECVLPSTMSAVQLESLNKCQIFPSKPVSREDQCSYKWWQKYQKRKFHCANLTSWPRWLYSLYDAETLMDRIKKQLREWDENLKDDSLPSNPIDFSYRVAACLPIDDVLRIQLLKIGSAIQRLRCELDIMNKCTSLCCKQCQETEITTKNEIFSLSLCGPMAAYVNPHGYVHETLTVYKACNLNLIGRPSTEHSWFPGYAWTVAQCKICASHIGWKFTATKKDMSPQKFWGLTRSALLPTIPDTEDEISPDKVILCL
T1 sequence (Q16531 whole entry partner): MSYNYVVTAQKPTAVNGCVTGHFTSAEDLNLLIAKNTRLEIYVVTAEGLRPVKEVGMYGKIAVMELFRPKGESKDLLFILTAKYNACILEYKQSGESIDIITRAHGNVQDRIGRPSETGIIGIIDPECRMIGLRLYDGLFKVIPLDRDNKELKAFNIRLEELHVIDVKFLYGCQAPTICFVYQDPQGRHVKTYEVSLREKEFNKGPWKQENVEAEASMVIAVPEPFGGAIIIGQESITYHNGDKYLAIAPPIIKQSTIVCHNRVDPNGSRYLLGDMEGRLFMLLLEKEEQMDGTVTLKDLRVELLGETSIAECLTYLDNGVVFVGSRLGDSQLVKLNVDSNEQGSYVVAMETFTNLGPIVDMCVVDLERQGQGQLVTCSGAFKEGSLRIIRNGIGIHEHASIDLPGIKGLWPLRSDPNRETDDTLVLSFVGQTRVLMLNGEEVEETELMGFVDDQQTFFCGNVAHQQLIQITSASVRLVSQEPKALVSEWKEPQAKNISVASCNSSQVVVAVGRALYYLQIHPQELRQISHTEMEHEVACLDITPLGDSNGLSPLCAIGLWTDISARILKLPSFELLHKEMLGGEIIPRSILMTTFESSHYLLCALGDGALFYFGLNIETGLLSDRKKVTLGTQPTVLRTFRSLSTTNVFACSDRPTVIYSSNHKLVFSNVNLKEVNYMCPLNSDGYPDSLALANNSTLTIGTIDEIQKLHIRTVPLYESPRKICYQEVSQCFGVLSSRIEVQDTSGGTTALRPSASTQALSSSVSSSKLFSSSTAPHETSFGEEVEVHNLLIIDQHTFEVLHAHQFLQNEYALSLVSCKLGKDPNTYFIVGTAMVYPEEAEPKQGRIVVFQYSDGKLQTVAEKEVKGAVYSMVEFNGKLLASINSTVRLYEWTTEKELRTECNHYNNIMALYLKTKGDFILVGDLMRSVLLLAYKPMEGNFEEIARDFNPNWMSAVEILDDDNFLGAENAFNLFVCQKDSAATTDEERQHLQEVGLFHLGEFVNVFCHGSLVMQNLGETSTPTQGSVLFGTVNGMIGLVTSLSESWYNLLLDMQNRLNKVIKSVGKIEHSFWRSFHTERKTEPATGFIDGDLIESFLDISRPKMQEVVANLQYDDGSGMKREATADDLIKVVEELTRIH

| Compound | Emax [1, 3] [%] | DC50 [1, 4] [nM] | DC50 [1, 5] [nM] | GI50 [2] [nM] | DC50 [1, 6] [nM] | DC50 [1, 7] [nM] | Emax [1, 8] [%] | DC50 [1, 9] [nM] | Emax [1, 10] [%] | DC50 [1, 11] [nM] | Emax [2] [%] |
| --- | --- | --- | --- | --- | --- | --- | --- | --- | --- | --- | --- |
| Cn1nc(N2CCC(=O)NC2=O)c2cc(F)c(N3CC4(CC(N5CCC6(CC5)CC(c5cnc7ccc(Oc8c(F)ccc(NS(=O)(=O)N9CC[C@@H](F)C9)c8C#N)cc7n5)C6)C4)C3)cc21 [Compound 265, (3R)-N-[2-cyano-3-[3-[7-[2-[3-(2,4-dioxohexahydropyrimidin-1-yl)-5-fluoro-1-methyl-indazol-6-yl]-2-azaspiro [3.3]heptan-6-yl]-7-azaspiro [3.5]nonan-2-yl]quinoxalin-6-yl]oxy-4-fluoro-phenyl]-3-fluoro-pyrrolidine-1-sulfonamide] | < 50 | < 1000 | < 1000 | < 1000 |  |  |  |  |  |  | < 50 |
| CCN(C)S(=O)(=O)Nc1ccc(F)c(Oc2ccc3ncn(C4CC5(CCN(C6CC7(CCN(c8cc9c(cc8F)c(N8CCC(=O)NC8=O)nn9C)CC7)C6)C5)C4)c(=O)c3c2)c1C#N (stereo not drawn) [Compound 266, 6-[2-cyano-3-[[ethyl(methyl)sulfamoyl]amino]-6-fluoro-phenoxy]-3-[6-[7-[3-(2,4-dioxohexahydropyrimidin-1-yl)-5-fluoro-1-methyl-indazol-6-yl]-7-azaspiro[3.5]nonan-2-yl]-6-azaspiro[3.4]octan-2-yl]-4-oxo-quinazoline] | 50 to 90 |  |  | > 10000 | < 1000 | < 1000 |  |  |  |  | 50 to 90 |
| Cn1nc(N2CCC(=O)NC2=O)c2cc(F)c(C3CCC(N4CCC5(CC4)CC(c4cnc6ccc(Oc7c(F)ccc(NS(=O)(=O)N8CC[C@@H](F)C8)c7C#N)cc6n4)C5)CC3)cc21 (stereo partly drawn) [Compound 267, (3R)-N-[2-cyano-3-[3-[7-[4-[3-(2,4-dioxohexahydropyrimidin-1-yl)-5-fluoro-1-methyl-indazol-6-yl]cyclohexyl]-7-azaspiro[3.5]nonan-2-yl]quinoxalin-6-yl]oxy-4-fluoro-phenyl]-3-fluoro-pyrrolidine-1-sulfonamide] |  |  |  | < 1000 | < 1000 | < 1000 | < 50 |  |  |  | < 50 |
| CO[C@H]1CCN(S(=O)(=O)Nc2ccc(F)c(Oc3ccc4ncn(C5CC6(CCN(C7CC8(C7)CN(c7cc9c(cc7F)c(N7CCC(=O)NC7=O)nn9C)C8)CC6)C5)c(=O)c4c3)c2C#N)C1 (stereo partly drawn) [Compound 272, (3S)-N-[2-cyano-3-[3-[7-[2-[3-(2,4-dioxohexahydropyrimidin-1-yl)-5-fluoro-1-methyl-indazol-6-yl]-2-azaspiro[3.3]heptan-6-yl]-7-azaspiro[3.5]nonan-2-yl]-4-oxo-quinazolin-6-yl]oxy-4-fluoro-phenyl]-3-methoxy-pyrrolidine-1-sulfonamide] |  | < 1000 | < 1000 | > 10000 |  |  | < 50 |  |  |  | 50 to 90 |
| CCN(C)S(=O)(=O)Nc1ccc(F)c(Oc2ccc3ncn(C4CCN(C5CC6(CCN(c7cc8c(cc7F)c(N7CCC(=O)NC7=O)nn8C)CC6)C5)CC4)c(=O)c3c2)c1C#N [Compound 274, 6-[2-cyano-3-[[ethyl(methyl)sulfamoyl]amino]-6-fluoro-phenoxy]-3-[1-[7-[3-(2,4-dioxohexahydropyrimidin-1-yl)-5-fluoro-1-methyl-indazol-6-yl]-7-azaspiro[3.5]nonan-2-yl]-4-piperidyl]-4-oxo-quinazoline] | < 50 |  |  | < 1000 | < 1000 | < 1000 |  |  |  |  | < 50 |

Now from value to molecule, other results behind:

| Emax [1, 3] [%] | DC50 [1, 4] [nM] | DC50 [1, 5] [nM] | GI50 [2] [nM] | DC50 [1, 6] [nM] | DC50 [1, 7] [nM] | Emax [1, 8] [%] | DC50 [1, 9] [nM] | Emax [1, 10] [%] | DC50 [1, 11] [nM] | Compound | Emax [2] [%] |
| --- | --- | --- | --- | --- | --- | --- | --- | --- | --- | --- | --- |
| < 50 | < 1000 | < 1000 | < 1000 |  |  |  |  |  |  | CO[C@@H]1CCN(S(=O)(=O)Nc2ccc(F)c(Oc3ccc4ncc(C5CC6(CCN(C7CC8(C7)CN(c7cc9c(cc7F)c(N7CCC(=O)NC7=O)nn9C)C8)CC6)C5)nc4c3)c2C#N)C1 (stereo partly drawn) [Compound 278, (3R)-N-[2-cyano-3-[3-[7-[2-[3-(2,4-dioxohexahydropyrimidin-1-yl)-5-fluoro-1-methyl-indazol-6-yl]-2-azaspiro[3.3]heptan-6-yl]-7-azaspiro[3.5]nonan-2-yl]quinoxalin-6-yl]oxy-4-fluoro-phenyl]-3-methoxy-pyrrolidine-1-sulfonamide] | < 50 |
| 50 to 90 | < 1000 | < 1000 | > 10000 |  |  |  |  |  |  | CO[C@H]1CCN(S(=O)(=O)Nc2ccc(F)c(Oc3ccc4ncc(C5CC6(CCN(C7CC8(C7)CN(c7cc9c(cc7F)c(N7CCC(=O)NC7=O)nn9C)C8)CC6)C5)nc4c3)c2C#N)C1 (stereo partly drawn) [Compound 279, (3S)-N-[2-cyano-3-[3-[7-[2-[3-(2,4-dioxohexahydropyrimidin-1-yl)-5-fluoro-1-methyl-indazol-6-yl]-2-azaspiro[3.3]heptan-6-yl]-7-azaspiro[3.5]nonan-2-yl]quinoxalin-6-yl]oxy-4-fluoro-phenyl]-3-methoxy-pyrrolidine-1-sulfonamide] | 50 to 90 |
| < 50 | < 1000 | < 1000 | < 1000 |  |  |  |  |  |  | Cn1nc(N2CCC(=O)NC2=O)c2cc(F)c(N3CC4(CC(N5CCC6(CC5)CC(c5cnc7ccc(Oc8c(F)ccc(NS(=O)(=O)C9CCCC9)c8C#N)cc7n5)C6)C4)C3)cc21 [Compound 283, N-[2-cyano-3-[3-[7-[2-[3-(2,4-dioxohexahydropyrimidin-1-yl)-5-fluoro-1-methyl-indazol-6-yl]-2-azaspiro[3.3]heptan-6-yl]-7-azaspiro[3.5]nonan-2-yl]quinoxalin-6-yl]oxy-4-fluoro-phenyl]cyclopentanesulfonamide] | 50 to 90 |
| 50 to 90 |  |  | < 1000 | < 1000 | < 1000 |  | < 1000 | < 50 | < 1000 | CCN(C)S(=O)(=O)Nc1ccc(F)c(Oc2ccc3ncn(C4CC5(C4)CN(CC4CCN(c6cc7c(cc6F)c(N6CCC(=O)NC6=O)nn7C)CC4)C5)c(=O)c3c2)c1C#N [Compound 296, 6-[2-cyano-3-[[ethyl(methyl)sulfamoyl]amino]-6-fluoro-phenoxy]-3-[2-[[1-[3-(2,4-dioxohexahydropyrimidin-1-yl)-5-fluoro-1-methyl-indazol-6-yl]-4-piperidyl]methyl]-2-azaspiro[3.3]heptan-6-yl]-4-oxo-quinazoline] | 50 to 90 |
| 50 to 90 |  |  | > 10000 | < 1000 | 1000 to 10000 |  |  |  |  | CCN(C)S(=O)(=O)Nc1ccc(F)c(Oc2ccc3ncc(C4CC5(C4)CN(C4CC6(C4)CN(c4cc7c(cc4F)c(N4CCC(=O)NC4=O)nn7C)C6)C5)nc3c2)c1C#N (stereo not drawn) [Compound 303, 7-[2-cyano-3-[[ethyl(methyl)sulfamoyl]amino]-6-fluoro-phenoxy]-2-[2-[2-[3-(2,4-dioxohexahydropyrimidin-1-yl)-5-fluoro-1-methyl-indazol-6-yl]-2-azaspiro[3.3]heptan-6-yl]-2-azaspiro[3.3]heptan-6-yl]quinoxaline] | 50 to 90 |
| 50 to 90 |  |  | 1000 to 10000 | < 1000 | 1000 to 10000 |  | < 1000 | < 50 | < 1000 | CCN(C)S(=O)(=O)Nc1ccc(F)c(C(=O)c2ccc3ncn(C4CC5(CCN(C6CC7(C6)CN(c6cc8c(cc6F)c(N6CCC(=O)NC6=O)nn8C)C7)CC5)C4)c(=O)c3c2)c1F (stereo not drawn) [Compound 304, 3-[7-[2-[3-(2,4-dioxohexahydropyrimidin-1-yl)-5-fluoro-1-methyl-indazol-6-yl]-2-azaspiro[3.3]heptan-6-yl]-7-azaspiro[3.5]nonan-2-yl]-6-[3-[[ethyl(methyl)sulfamoyl]amino]-2,6-difluoro-benzoyl]-4-oxo-quinazoline] | 50 to 90 |
| < 50 |  |  | < 1000 | < 1000 | < 1000 |  | < 1000 | < 50 | < 1000 | CCN(C)S(=O)(=O)Nc1ccc(F)c(Oc2ccc3ncn(C4CC5(C4)CN(C4CC6(C4)CN(c4cc7c(cc4F)c(N4CCC(=O)NC4=O)nn7C)C6)C5)c(=O)c3c2)c1C#N (stereo not drawn) [Compound 305, 6-[2-cyano-3-[[ethyl(methyl)sulfamoyl]amino]-6-fluoro-phenoxy]-3-[2-[2-[3-(2,4-dioxohexahydropyrimidin-1-yl)-5-fluoro-1-methyl-indazol-6-yl]-2-azaspiro[3.3]heptan-6-yl]-2-azaspiro[3.3]heptan-6-yl]-4-oxo-quinazoline] | 50 to 90 |
